Data as given in PMC8400033, “A Multicomponent Protocol for the Synthesis of Highly Functionalized γ-Lactam Derivatives and Their Applications as Antiproliferative Agents” (Pharmaceuticals, 2021).
Like-named read-outs stand apart in the source and are kept apart here.

Experiments:
[1] = tested on: MRC5 non-malignant lung fibroblasts; assay: CCK-8 assay on non-malignant cells for selective toxicity; assay type: cell-based; conditions: Homo sapiens; MRC5 non-malignant lung fibroblasts, CCK-8; read-out: IC50 MRC5
Procedure: (§2) In vitro cytotoxicity of the γ-lactam derivatives was evaluated by testing their antiproliferative activities against several human cancer cell lines. Cell counting kit (CCK-8) assay was used for the evaluation of growth inhibition.
(§3) All stock solutions of the investigated compounds were prepared by dissolving the powdered materials in appropriate amounts of DMSO. The final concentration of DMSO never exceeded 5% (v/v) in reactions. The stock solution was stored at 5 °C until it was used.
(§4) All were supplemented with 10% of fetal bovine serum (FBS) (Sigma-Aldrich, Madrid, Spain) and with 1% of NORMOCIN solution (Thermo Fisher, Waltham, Massachusetts, MA, USA). […] For cytotoxicity experiments, A549 cells were seeded in 96-well plates at a density of 2.5–3 × 10^3 cells per well and incubated overnight to achieve 70% of confluence at the time of exposition to the cytotoxic compound.
(§5) Both were supplemented with 10% of fetal bovine serum (FBS) (Sigma-Aldrich, Spain) and with 1% of NORMOCIN solution (Thermo Fisher, Waltham, Massachusetts, MA, USA). […] For cytotoxicity experiments, A549 cells were seeded in 96-well plates at a density of 2.5–3 × 10^3 cells per well and incubated overnight to achieve 70% of confluence at the time of exposition to the cytotoxic compound.

[2] = tested on: A549 (carcinomic human alveolar basal epithelial cell); assay: CCK-8 antiproliferative assay, A549 cell line; assay type: cell-based; conditions: Homo sapiens, A549, A549 cell line, CCK-8; read-out: IC50 A549
Procedure: as §2, §3, §4, §5

[3] = tested on: SKOV3 (human ovarian carcinoma); assay: CCK-8 antiproliferative assay, SKOV3 cell line; conditions: for IC50: Homo sapiens
Procedure: as §2, §3, §4

[4] = Solubility in solvents compatible with in vitro assays; assay type: physicochemical; conditions: in words
[5] = tested on: MCF7 (human breast adenocarcinoma); assay: CCK-8 antiproliferative assay, MCF7 cell line; assay type: cell-based
Description: (§1) In a preliminary study, we tested the cytotoxicity of γ-lactam 4b as lead compound against seven human cancer cell lines: HEK293 (human embryonic kidney), MCF7 (human breast adenocarcinoma), HTB81 (human prostate carcinoma), HeLa (human epithelioid cervix carcinoma), RKO (human colon epithelial carcinoma), SKOV3 (human ovarian carcinoma) and A549 (carcinomic human alveolar basal epithelial cell). The cell proliferation inhibitory activity of γ-lactam 4b is shown as IC50 values (Figure 2).

[6] = tested on: HTB81 (human prostate carcinoma); assay: CCK-8 antiproliferative assay, HTB81 cell line; assay type: cell-based
Description: as §1

[7] = tested on: RKO (human colon epithelial carcinoma); assay: CCK-8 antiproliferative assay, RKO cell line; assay type: cell-based
Procedure: as §2, §3, §4

[8] = tested on: HEK293 (human embryonic kidney); assay: CCK-8 antiproliferative assay, HEK293 cell line; assay type: cell-based
Description: as §1

[9] = tested on: A549 cells; assay: Flow cytometry apoptosis/necrosis assay (Annexin V FITC / propidium iodide); assay type: cell-based, human; conditions: A549, 5 µM; for Percentage of late-apoptotic and necrotic cells: FL-1 and FL-3 positive; for Percentage of early-apoptotic cells: FL-1 positive, FL-3 negative
Procedure: In addition, flow cytometry assays were performed using compound 4b in A549 cells at 12, 24, and 48 h post-exposure. Early apoptotic cells were FL-1 positive and FL-3 negative, meaning that they had initialized the apoptotic process but were still alive at the time of the measurement. Percentages of these early-apoptotic cells after 12, 24, and 48 h. were, respectively, 31.17 ± 2.04%, 34.97 ± 3.62% and 40.13 ± 0.81%. On the other hand, late apoptotic and necrotic cells were both FL-1 and FL-3 positive, meaning that they activated the apoptotic machinery and were dead at the time of the measurement. Percentages of late-apoptotic and necrotic cells after 12, 24 and 48 h were, respectively, 33.03 ± 1.43%, 37.60 ± 3.37% and 36.90 ± 0.70% (Figure 4). Control live cells were all FL-1 and FL-3 negative, while around 95% of control necrotic cells were FL-3 positive, FL-1 negative (See ESI). […] In fact, among all the dead cells detected, which were FL-1 positive, almost all were simultaneously positive for the FL-3 channel too, while only a small percentage (2% or lower) of dead cells were exclusively FL-1 positive. Therefore, the majority of dead cells detected in this study were apoptotic cells. In addition, the total percentages of […], which comprised early and late apoptotic cells, were over 60%, and the percentage increased over time.
Flow cytometry assays were conducted using a FACSCalibur system flow cytometer (Becton Dickinson Bioscience, Franklin Lakes, NJ, USA), to identify apoptotic cells and to differentiate them from necrotic cells. A549 cells were exposed to 5 µM of the cytotoxic compound 4b and cell apoptosis and necrosis were evaluated 12, 24, and 48 h after exposure. For that purpose, treated cells were washed with phosphate-buffered saline (PBS) (Sigma-Aldrich, Spain) and detached with trypsin/EDTA (0.25%) (Gibco, New York, NY, USA). Cells were centrifuged at 1100 rpm for 5 min, and then the resulting pellet was resuspended in cell growth media and transferred to specific flow cytometer tubes. Propidium iodide (Sigma-Aldrich, Spain) at 1:300 dilution was used in each sample to detect necrotic cells and eBioscience™ Annexin V Apoptosis Detection Kit FITC (Fisher Scientific, Spain) was used to detect apoptotic cells following the manufacturer’s instructions. The fluorescent signals corresponding to necrotic cells and apoptotic cells were measured at 650 nm (FL3) and 525 nm (FL1), respectively. […] Cells treated with 1 µM of camptothecin (Sigma-Aldrich, Spain) served as a positive control for apoptosis and were used to establish cytometer settings and channel compensations. The experiments were carried out in triplicate for each condition. For each sample, 10,000 events were collected.

[10] = tested on: HeLa (human epithelioid cervix carcinoma); assay: CCK-8 antiproliferative assay, HeLa cell line; assay type: cell-based
Description: as §1

[11] = tested on: A549 cells; assay: Visualization of cell growth and morphology; assay type: cell-based, human
Procedure: Next, cell morphology analysis and flow cytometry assays were performed, to elucidate the mechanism of the antiproliferative activity of γ-lactam substrates. Cell morphology was analyzed at different time points after the addition of compound 4b to visualize the cellular modifications as a result of the treatment.
Qualitative analysis of A549 cell growth and morphology after exposure to 1 µM and 5 µM of the cytotoxic compound 4b was conducted using Cytation^TM 1 Cell Imaging Multi-Mode Reader (Biotek, Winooski, VT, USA). Cell images were acquired immediately after the addition of the compound and at the following time-points after exposure: 0.5, 1, 1.5, 2, 3, 4, 8, 12, 16, 24, and 48 h.

[12] = SK-OV-3, read-out: IC50 SKOV3, SKOV3 cell line, CCK-8

Row | Compound | IC50 [1] | IC50 [2] | melting point | IC50 [3, 12] | further results
1 | Cc1ccc(NC2=CC(c3ccc(C)cc3)N(c3ccc(C)cc3)C2=O)cc1 (centres unmarked) [4c] | > 50 µM | 21 ± 1.64 µM | 210 to 213 °C | > 50 µM | 
2 | Cc1ccc(NC2=C(P(=O)(c3ccccc3)c3ccccc3)CN(c3ccc(C)cc3)C2=O)cc1 [5e] |  |  |  |  | Solubility in the solvents compatible with the tests for in vitro assays [4]: low solubility
3 | Cc1ccc(NC2=CC(c3ccccc3)N(c3ccc(C)cc3)C2=O)cc1 (centres unmarked) [4b] | > 50 µM | 2.34 ± 0.28 µM |  | 9.62 ± 1.18 µM | Growth inhibition activity against MCF7, in words [5]: no grown inhibition activity; IC50 ([5]; Homo sapiens, MCF7, Figure 2): > 50 µM; IC50 [6]: 27.9 µM; IC50 [7]: 22.1 ± 2.98 µM; Growth inhibition activity against HEK293, in words [8]: no grown inhibition activity; IC50 ([8]; Homo sapiens, HEK293, Figure 2): > 50 µM; Percentage of dead cells exclusively FL-1 positive ([9]; 12-48 h): ≤ 2%; Total percentage of FL-3 positive cells (early and late apoptotic cells) ([9]; 12-48 h, increased over time): over 60%; Percentage of late-apoptotic and necrotic cells ([9]; 12 h post-exposure): 33.03 ± 1.43%; Percentage of early-apoptotic cells ([9]; 12 h post-exposure): 31.17 ± 2.04%; Percentage of late-apoptotic and necrotic cells ([9]; 24 h post-exposure): 37.60 ± 3.37%; Percentage of early-apoptotic cells ([9]; 24 h post-exposure): 34.97 ± 3.62%; Percentage of late-apoptotic and necrotic cells ([9]; 48 h post-exposure): 36.90 ± 0.70%; Percentage of early-apoptotic cells ([9]; 48 h post-exposure): 40.13 ± 0.81%; IC50 [10]: 30.2 µM; Cell morphology and growth ([11]; 1 µM, 0-48 h): healthy, uniform morphology; Cell morphology and growth ([11]; 5 µM, especially after 6 h of exposure): alterations of the cellular morphology; Cell morphology ([11]; higher concentrations (10 and 15 µM, 24 h)): high cytotoxicity
4 | Cc1ccc(/N=C2/C=C(c3ccccc3)N(c3ccc(C)cc3)C2=O)cc1 [compound 21, (Z)-5-phenyl-1-(p-tolyl)-3-(p-tolylimino)-1,3-dihydro-2H-pyrrol-2-one] | 6.12 ± 0.76 µM | 0.6 ± 0.08 µM | 207 °C (dec.) | 16.7 ± 1.1 µM | 
5 | O=C1C(Nc2cccc(C(F)(F)F)c2)=CCN1c1cccc(C(F)(F)F)c1 [11a] | > 50 µM | 22.9 ± 1.13 µM | 160 to 162 °C | > 50 µM | 
6 | CCOC(=O)C1(C)C=C(Nc2ccc(C)cc2)C(=O)N1c1ccc(C)cc1 (centres unmarked) [compound 16, Ethyl 2-methyl-5-oxo-1-(p-tolyl)-4-(p-tolylamino)-2,5-dihydro-1H-pyrrole-2-carboxylate] | > 50 µM | 14 ± 1.05 µM | 188 to 190 °C (dec.) | > 50 µM | IC50 [7]: > 50 µM
7 | Cc1ccc(NC2=CCN(c3ccc(C)cc3)C2=O)cc1 [4a, 1-(p-Tolyl)-3-(p-tolylamino)-1,5-dihydro-2H-pyrrol-2-one] | > 50 µM |  | 178 to 180 °C |  | Cytotoxic activity against SKOV3 cell line, in words [3]: did not show activity; IC50 ([3]; SK-OV-3, read-out: IC50 SKOV3): > 50 µM
8 | Cc1ccc(NC2=CC(CC(C)C)N(c3ccc(C)cc3)C2=O)cc1 (centres unmarked) [4p] | 24.1 ± 1.64 µM | 20.1 ± 2 µM | 178 to 179 °C | > 50 µM | 
